In patent US20060148898A1 (priority 2003, published 2006):
Entries after “also recorded” stand apart in the source; their conditions may differ. Like-named read-outs stand apart in the source and are kept apart here.

How the values were obtained:
[1] = tested on: male rats of the Wistar-100 line; conditions: rat, in vivo
[2] = tested on: male rats of the Wistar-100 line; conditions: rat, in vivo; remark: listed apart in the source
[3] = tested on: male rats of the Wistar-100 line; conditions: rat, in vivo; remark: listed apart in the source
[4] = tested on: adult volunteers; conditions: human, in vivo

**Q.** Which “Alanine aminotransferase (ALT) activity in liver homogenates” value [1] does the source give for `O=S(=O)([O-])CC(S)CS.[Na+]` (stereo not shown) [Unithiol, 2,3-Dimercaptopropane-sulfonate Na] here?
**A.** twice lower

**Q.** And the “activity of enzymes characterizing damage of hepatocyte membranes (ALT, AST)” value [1]?
**A.** reliably lower than in the control group

**Q.** And the “concentration of end products of lipid peroxidation (TBA-positive compounds) in blood plasma” value [1]?
**A.** reliably differing from an analogous group without use of Unithiol toward; lowering

**Q.** And the “mean content of vitamin E and A in blood plasma” value [1]?
**A.** on the level of values in the control group

**Q.** What about the “content of the main endogenous antioxidants (vitamins E, A, SH-groups)” value ([1]; po) of the same compound?
**A.** preserved on the level close to the values in the control group

**Q.** And the “concentration of end products of lipid peroxidation (TBA-positive compounds) in blood plasma” value [2]?
**A.** reliably differing from an analogous group without use of Unithiol toward; lowering

**Q.** What about the “content of the main endogenous antioxidants (vitamins E, A, SH-groups)” value ([2]; po) of the same compound?
**A.** preserved on the level close to the values in the control group

**Q.** And the “biochemical parameters of toxic action of ethanol on liver tissue (lipid peroxides, triglycerides, ALT, AST)” value [3]?
**A.** oral administration of Unithiol yields essentially better values

**Q.** What about the “biochemical values (MDA, vitamins E and A, SH-groups, ALT, AST, triglycerides)” value [4] of the same compound?
**A.** did not lead to worsening of the biochemical values; also recorded: restoration of the initial (basic) level of the biochemical values

**Q.** And the “time after intake at which the subjective perception of withdrawal is removed” value [4]?
**A.** 8 to 10 min
